US20190060311A1, “COMPOSITIONS AND METHODS FOR TREATMENT OF VITILIGO” (ACLARIS THERAPEUTICS, INC., priority 2017, published 2019)
Structures can show the parent of a compound that is named as a salt.

Key:
[1] = test system: destruction of melanocytes; experiment: Harris mouse model of vitiligo (adoptive transfer of TCR transgenic T cells), in-life vitiligo scoring; type: in vivo; settings: both doses (50 and 100 mg/kg), oral gavage QD, scored 5 weeks after initiation of dosing
From the text: The primary driver of vitiligo is an autoimmune attack on melanocytes, the cells which give skin its color. The initiating event(s) for this autoimmune attack is unknown, however the key cell type driving the destruction of the melanocytes is the CD8+ cytolytic T cell (CTL). A major cytokine that drives the activation/function of these CTL is IFNy, whose receptor signals via JAK1 and JAK2. Drugs that block the function of JAK1 or JAK2 would be predicted to be efficacious in reversing the autoimmune destruction of melanocytes, and this has been confirmed with pilot studies using tofacitinib (an inhibitor of JAK3/JAK1/JAK2) and ruxolitinib (an inhibitor of JAK1/JAK2). The development of novel therapeutics for treatment of vitiligo would be facilitated by an animal model of disease that specifically recapitulates the key features of the disease (IFNγ CD8+ CTL driven destruction of melanocytes). Dr. John Harris of the University of Massachusetts Medical School has developed such a model. […] Attempted induction of disease is then accomplished using a proprietary method and is measured by the degree of melanocyte destruction. […] In FIG. 1, each symbol represents an individual animal, scored 5 weeks after initiation of dosing. Statistical significance was determined with the Student's T test.

[2] = Plasma drug levels after oral gavage in the mouse vitiligo model; type: in vivo; settings: oral gavage QD, post dose
[3] = test system: non-segmental facial vitiligo; experiment: Open-label clinical trial, topical treatment of non-segmental facial vitiligo; type: in vivo; settings: 0.46% (w/w) topical solution twice daily; as early as 4 weeks after initiating treatment
From the text: Subjects with a clinical diagnosis of new onset or actively progressing non-segmental facial vitiligo or worsening of existing facial lesions within the past 6 months were enrolled in an open-label clinical trial and treated with a 0.46% (w/w) topical solution formulation of 5-((2-((4-fluoro-3-methoxy-5-methylphenyl)amino)-5-methylpyrimidin-4-yl)amino)benzo[d]oxazol-2(3H)-one hydrochloride applied twice daily for 24 weeks by the protocol-prescribed method.
It is anticipated that the treatment will be judged to be safe and tolerable.

[4] = test system: autoimmune destruction of melanocytes; settings: pilot studies; cited from earlier work

| Compound | efficacy in the model (vitiligo score, FIG. 1) [1] | time plasma drug levels were above the EC50 for blockade of IFNγ signaling ([2]; 50 mg/kg) | time plasma drug levels were above the EC50 for blockade of IFNγ signaling ([2]; 100 mg/kg) | improvement of disease (pigmentation at lesion borders, repigmentation, Facial VASI index) [3] | efficacious in reversing the autoimmune destruction of melanocytes [4] |
| --- | --- | --- | --- | --- | --- |
| COc1cc(Nc2ncc(C)c(Nc3ccc4oc(=O)[nH]c4c3)n2)cc(C)c1F [5-((2-((4-fluoro-3-methoxy-5-methylphenyl)amino)-5-methylpyrimidin-4-yl)amino)benzo[d]oxazol-2(3H)-one hydrochloride] | excellent efficacy | 6 h | 20 h | early improvement in their disease |  |
| N#CC[C@H](C1CCCC1)n1cc(-c2ncnc3[nH]ccc23)cn1 [ruxolitinib, (R)-3-(4-(7H-pyrrolo[2,3-d]pyrimidin-4-yl)-1H-pyrazol-1-yl)-3-cyclopentylpropanenitrile] |  |  |  |  | confirmed |
| C[C@@H]1CCN(C(=O)CC#N)C[C@@H]1N(C)c1ncnc2[nH]ccc12 [tofacitinib, 3-{(3R,4R)-4-methyl-3-[methyl-(7H-pyrrolo[2,3-d]pyrimidin-4-yl)-amino]-piperidin-1-yl}-3-oxo-propionitrile] |  |  |  |  | confirmed |
